Laboratory results reported in PubChem BioAssay AID1745844 (Carcinogenic Potency Database (CPDB), 2022).
The source made the active and inactive calls. No rule for the calls is given here.

Tested on: rodent lifetime carcinogenesis bioassay, tumor incidence TD50
Assay: chronic cancer bioassays in animals – CPDB, compiled studies (AID 1745844)

C[C@]12C=CC(=O)C=C1CC[C@@H]1[C@@H]2C(=O)C[C@@]2(C)[C@H]1CC[C@]2(O)C(=O)CO
carcinogen call (mouse, strain Charles River CD1, females, in feed, site: liver, lesion: several types, types named in the paper, dosed 78 weeks, study length 78 weeks): negative (inactive)
carcinogen call (mouse, strain Charles River CD1, females, in feed, site: lung, lesion: alveolar/bronchiolar tumor, dosed 78 weeks, study length 78 weeks): negative (inactive)
carcinogen call (mouse, strain Charles River CD1, females, in feed, site: lung, lesion: undifferentiated carcinoma, dosed 78 weeks, study length 78 weeks): negative (inactive)
carcinogen call (mouse, strain Charles River CD1, males, in feed, site: liver, lesion: several types, types named in the paper, dosed 78 weeks, study length 78 weeks): negative (inactive)
carcinogen call (mouse, strain Charles River CD1, males, in feed, site: lung, lesion: alveolar/bronchiolar tumor, dosed 78 weeks, study length 78 weeks): negative (inactive)

Brc1cc(Br)c2cccnc2c1
carcinogen call (rat, strain Fischer 344, females, in feed, site: liver, lesion: hyperplastic nodule, dosed 104 weeks, study length 104 weeks): negative (inactive)
TD50 (rat, strain Fischer 344, males, in feed, site: liver, lesion: hyperplastic nodule, dosed 104 weeks, study length 104 weeks): 754 mg/kg/day (inactive)
TD50 (rat, strain Fischer 344, males, in feed, site: testis, lesion: interstitial-cell tumor, dosed 104 weeks, study length 104 weeks): 69.4 mg/kg/day (inactive)

O=C(O)c1ccc([N+](=O)[O-])cc1
TD50 (mouse, strain B6C3F1, females, in feed, site: any site (literature study), lesion: several types, types named in the paper, dosed 103 weeks, study length 104 weeks): 3160 mg/kg/day (inactive)
TD50 (mouse, strain B6C3F1, females, in feed, site: lung, lesion: alveolar/bronchiolar adenoma + alveolar/bronchiolar carcinoma, dosed 103 weeks, study length 104 weeks): 2330 mg/kg/day
carcinogen call (mouse, strain B6C3F1, males, in feed, site: any site (literature study), lesion: several types, types named in the paper, dosed 103 weeks, study length 104 weeks): negative (inactive)
TD50 (mouse, strain B6C3F1, males, in feed, site: lung, lesion: alveolar/bronchiolar adenoma + alveolar/bronchiolar carcinoma, dosed 103 weeks, study length 104 weeks): 4350 mg/kg/day
TD50 (rat, strain Fischer 344, females, in feed, site: any site (literature study), lesion: several types, types named in the paper, dosed 103 weeks, study length 104 weeks): 373 mg/kg/day
TD50 (rat, strain Fischer 344, females, in feed, site: clitoral gland, lesion: adenoma + adenoma, bilateral + carcinoma + carcinoma, bilateral, dosed 103 weeks, study length 104 weeks): 287 mg/kg/day
TD50 (rat, strain Fischer 344, females, in feed, site: clitoral gland, lesion: adenoma + adenoma, bilateral, dosed 103 weeks, study length 104 weeks): 439 mg/kg/day
TD50 (rat, strain Fischer 344, females, in feed, site: clitoral gland, lesion: carcinoma + carcinoma, bilateral, dosed 103 weeks, study length 104 weeks): 1080 mg/kg/day
TD50 (rat, strain Fischer 344, females, in feed, site: uterus, lesion: endometrial stromal polyp + endometrial stromal sarcoma, dosed 103 weeks, study length 104 weeks): 197 mg/kg/day
TD50 (rat, strain Fischer 344, females, in feed, site: uterus, lesion: endometrial stromal polyp, dosed 103 weeks, study length 104 weeks): 220 mg/kg/day
TD50 (rat, strain Fischer 344, males, in feed, site: preputial gland, lesion: carcinoma + carcinoma, bilateral, dosed 103 weeks, study length 104 weeks): 926 mg/kg/day (inactive)

NC(=O)NC1NC(=O)NC1=O (configuration not stated)
carcinogen call (rat, strain Fischer 344, females, in feed, site: liver, lesion: neoplastic nodule, dosed 106 weeks, study length 128 weeks): negative (inactive)
carcinogen call (rat, strain Fischer 344, males, in feed, site: liver, lesion: neoplastic nodule, dosed 106 weeks, study length 128 weeks): negative (inactive)

C=CN1CCCC1=O
TD50 (rat, strain Charles River CD (Sprague-Dawley), females, inhaled, site: any site (literature study), lesion: malignant tumor, dosed 104 weeks, study length 104 weeks): 6.12 mg/kg/day
TD50 (rat, strain Charles River CD (Sprague-Dawley), females, inhaled, site: larynx, lesion: squamous-cell carcinoma, dosed 104 weeks, study length 104 weeks): 120 mg/kg/day
TD50 (rat, strain Charles River CD (Sprague-Dawley), females, inhaled, site: liver, lesion: hepatocellular carcinoma, dosed 104 weeks, study length 104 weeks): 12.3 mg/kg/day
TD50 (rat, strain Charles River CD (Sprague-Dawley), females, inhaled, site: nasal cavity, olfactory epithelium, lesion: adenocarcinoma, dosed 104 weeks, study length 104 weeks): 120 mg/kg/day
TD50 (rat, strain Charles River CD (Sprague-Dawley), females, inhaled, site: nasal cavity, respiratory epithelium, lesion: adenoma, dosed 52 weeks, study length 52 weeks): 19.8 mg/kg/day
TD50 (rat, strain Charles River CD (Sprague-Dawley), females, inhaled, site: nasal cavity, respiratory epithelium, lesion: adenoma, dosed 104 weeks, study length 104 weeks): 20.4 mg/kg/day
TD50 (rat, strain Charles River CD (Sprague-Dawley), males, inhaled, site: any site (literature study), lesion: malignant tumor, dosed 104 weeks, study length 104 weeks): 5 mg/kg/day
TD50 (rat, strain Charles River CD (Sprague-Dawley), males, inhaled, site: any site (literature study), lesion: several types, types named in the paper, dosed 104 weeks, study length 104 weeks): 1.99 mg/kg/day
TD50 (rat, strain Charles River CD (Sprague-Dawley), males, inhaled, site: larynx, lesion: squamous-cell carcinoma, dosed 104 weeks, study length 104 weeks): 84 mg/kg/day
TD50 (rat, strain Charles River CD (Sprague-Dawley), males, inhaled, site: liver, lesion: hepatocellular carcinoma, dosed 104 weeks, study length 104 weeks): 12 mg/kg/day
TD50 (rat, strain Charles River CD (Sprague-Dawley), males, inhaled, site: nasal cavity, olfactory epithelium, lesion: adenocarcinoma, dosed 104 weeks, study length 104 weeks): 32.9 mg/kg/day
TD50 (rat, strain Charles River CD (Sprague-Dawley), males, inhaled, site: nasal cavity, respiratory epithelium, lesion: adenoma, dosed 52 weeks, study length 52 weeks): 8.56 mg/kg/day
TD50 (rat, strain Charles River CD (Sprague-Dawley), males, inhaled, site: nasal cavity, respiratory epithelium, lesion: adenoma, dosed 104 weeks, study length 104 weeks): 11.7 mg/kg/day

CN(CCCC(=O)c1cccnc1)N=O
TD50 (hamster, strain Syrian Golden, females, in drinking water, site: liver, lesion: hepatocellular carcinoma, dosed 87 weeks, study length 87 weeks): 5.13 mg/kg/day (inactive)
carcinogen call (hamster, strain Syrian Golden, females, in drinking water, site: lung, lesion: several types, types named in the paper, dosed 87 weeks, study length 87 weeks): negative (inactive)
carcinogen call (hamster, strain Syrian Golden, females, in drinking water, site: pancreas, lesion: adenocarcinoma, dosed 87 weeks, study length 87 weeks): negative (inactive)
carcinogen call (hamster, strain Syrian Golden, females, in drinking water, site: pancreatic islets, lesion: islet-cell adenoma, dosed 87 weeks, study length 87 weeks): negative (inactive)
TD50 (rat, strain Fischer 344, males, in drinking water, site: all sites, lesion: several types, types named in the paper, dosed 118 weeks, study length 128 weeks): 0.14 mg/kg/day
TD50 (rat, strain Fischer 344, males, in drinking water, site: liver, lesion: adenoma, dosed 118 weeks, study length 128 weeks): 0.871 mg/kg/day
TD50 (rat, strain Fischer 344, males, in drinking water, site: liver, lesion: hepatoma, dosed 118 weeks, study length 128 weeks): 2.74 mg/kg/day
TD50 (rat, strain Fischer 344, males, in drinking water, site: liver, lesion: several types, types named in the paper, dosed 111 weeks, study length 111 weeks): 2.97 mg/kg/day
TD50 (rat, strain Fischer 344, males, in drinking water, site: liver, lesion: several types, types named in the paper, dosed 118 weeks, study length 128 weeks): 0.651 mg/kg/day
TD50 (rat, strain Fischer 344, males, in drinking water, site: lung, lesion: adenocarcinoma, dosed 111 weeks, study length 111 weeks): 0.148 mg/kg/day
TD50 (rat, strain Fischer 344, males, in drinking water, site: lung, lesion: adenocarcinoma, dosed 118 weeks, study length 128 weeks): 0.672 mg/kg/day
TD50 (rat, strain Fischer 344, males, in drinking water, site: lung, lesion: adenoma, dosed 111 weeks, study length 111 weeks): 0.279 mg/kg/day
TD50 (rat, strain Fischer 344, males, in drinking water, site: lung, lesion: adenoma, dosed 118 weeks, study length 128 weeks): 0.343 mg/kg/day
TD50 (rat, strain Fischer 344, males, in drinking water, site: lung, lesion: adenosquamous carcinoma, dosed 118 weeks, study length 128 weeks): 1.46 mg/kg/day
TD50 (rat, strain Fischer 344, males, in drinking water, site: lung, lesion: several types, types named in the paper, dosed 111 weeks, study length 111 weeks): 0.0688 mg/kg/day
TD50 (rat, strain Fischer 344, males, in drinking water, site: lung, lesion: several types, types named in the paper, dosed 118 weeks, study length 128 weeks): 0.182 mg/kg/day
TD50 (rat, strain Fischer 344, males, in drinking water, site: lung, lesion: squamous-cell carcinoma, dosed 118 weeks, study length 128 weeks): 3.4 mg/kg/day
TD50 (rat, strain Fischer 344, males, in drinking water, site: nasal cavity, lesion: several types, types named in the paper, dosed 118 weeks, study length 128 weeks): 1.66 mg/kg/day
TD50 (rat, strain Fischer 344, males, in drinking water, site: pancreas, exocrine, lesion: acinar-cell adenoma, dosed 118 weeks, study length 128 weeks): 29.2 mg/kg/day
TD50 (rat, strain Fischer 344, males, in drinking water, site: pancreas, exocrine, lesion: adenocarcinoma, acinar or ductal, dosed 118 weeks, study length 128 weeks): 6.93 mg/kg/day
TD50 (rat, strain Fischer 344, males, in drinking water, site: pancreas, exocrine, lesion: malignant tumor, dosed 111 weeks, study length 111 weeks): 0.975 mg/kg/day
TD50 (rat, strain Fischer 344, males, in drinking water, site: pancreas, exocrine, lesion: several types, types named in the paper, dosed 118 weeks, study length 128 weeks): 0.49 mg/kg/day

O=[N+]([O-])c1ccc(O)c([N+](=O)[O-])c1
carcinogen call (mouse, strain DBA, females, in feed, site: mammary gland, lesion: carcinoma, dosed 90 weeks, study length 90 weeks): negative (inactive)

S=C=NCCCc1ccccc1
TD50 (rat, strain Fischer 344, males, in feed, site: testis, lesion: interstitial-cell tumor, dosed 89 weeks, study length 89 weeks): 4.34 mg/kg/day

Cc1cc(Cc2ccc(N)c(C)c2)ccc1N
TD50 (rat, strain Charles River CD (Sprague-Dawley), females, in feed, site: liver, lesion: cholangiocarcinoma, dosed 82 weeks, study length 82 weeks): 96.3 mg/kg/day
TD50 (rat, strain Charles River CD (Sprague-Dawley), females, in feed, site: liver, lesion: hepatocellular adenoma, dosed 82 weeks, study length 82 weeks): 30.5 mg/kg/day
TD50 (rat, strain Charles River CD (Sprague-Dawley), females, in feed, site: liver, lesion: hepatocellular carcinoma, dosed 82 weeks, study length 82 weeks): 7.92 mg/kg/day
TD50 (rat, strain Charles River CD (Sprague-Dawley), males, in feed, site: liver, lesion: hemangioma, dosed 68 weeks, study length 68 weeks): 35.2 mg/kg/day
TD50 (rat, strain Charles River CD (Sprague-Dawley), males, in feed, site: liver, lesion: hepatocellular adenoma, dosed 68 weeks, study length 68 weeks): 17 mg/kg/day
TD50 (rat, strain Charles River CD (Sprague-Dawley), males, in feed, site: liver, lesion: hepatocellular carcinoma, dosed 68 weeks, study length 68 weeks): 12.4 mg/kg/day
TD50 (rat, strain Charles River CD (Sprague-Dawley), males, in feed, site: mammary gland, lesion: fibroadenoma, dosed 68 weeks, study length 68 weeks): 6.91 mg/kg/day
TD50 (rat, strain Charles River CD (Sprague-Dawley), males, in feed, site: skin, lesion: fibroma, dosed 68 weeks, study length 68 weeks): 8.19 mg/kg/day

CC(=O)[O-].CC(=O)[O-].CCC(=O)c1ccc(F)c([C@@H]2C[C@@H]2NC(=O)Nc2ccc(C#N)cn2)c1O.[Zn+2]
TD50 (hamster, strain Syrian Golden, females, in feed, site: any site (literature study), lesion: several types, types named in the paper, dosed 78 weeks, study length 78 weeks): 177000 mg/kg/day (inactive)
carcinogen call (hamster, strain Syrian Golden, females, in feed, site: liver, lesion: hemangioma, dosed 78 weeks, study length 78 weeks): negative (inactive)
TD50 (hamster, strain Syrian Golden, males, in feed, site: any site (literature study), lesion: several types, types named in the paper, dosed 106 weeks, study length 111 weeks): 54100 mg/kg/day (inactive)
carcinogen call (hamster, strain Syrian Golden, males, in feed, site: liver, lesion: hemangioma, dosed 106 weeks, study length 111 weeks): negative (inactive)
TD50 (rat, strain MRC, females, in feed, site: peripheral nervous system, lesion: one or several types, types not named, dosed 143 weeks, study length 146 weeks): 35400 mg/kg/day (inactive)
carcinogen call (rat, strain MRC, females, in feed, site: skin, lesion: one or several types, types not named, dosed 143 weeks, study length 146 weeks): negative (inactive)
carcinogen call (rat, strain MRC, males, in feed, site: any site (literature study), lesion: several types, types named in the paper, dosed 139 weeks, study length 141 weeks): negative (inactive)

O=[As](O)(O)O
TD50 (monkey, strain Cynomolgus [Macaca fascicularis], both sexes, in feed, site: any site (literature study), lesion: benign tumor, dosed 735 weeks, study length 735 weeks): 0.169 mg/kg/day
TD50 (monkey, strain Cynomolgus [Macaca fascicularis], both sexes, in feed, site: kidney cortex, lesion: adenoma, dosed 735 weeks, study length 735 weeks): 0.029 mg/kg/day
carcinogen call (rat, strain Osborne-Mendel, both sexes, in feed, site: any site (literature study), lesion: malignant tumor, dosed 104 weeks, study length 104 weeks): negative (inactive)
carcinogen call (rat, strain Osborne-Mendel, both sexes, in feed, site: any site (literature study), lesion: several types, types named in the paper, dosed 104 weeks, study length 104 weeks): negative (inactive)
